Measurements from US20240208950A1, “COMPOSITIONS AND METHODS FOR TREATMENT OF CERVICAL AND OVARIAN CANCER” (SOUTH DAKOTA BOARD OF REGENTS, priority 2021, published 2024).

Test system: ovarian cancer cell line A2780
Assay: MTT cell viable assay (cytotoxicity and anti-proliferation)
Type: cell-based
Settings: Homo sapiens
Description: A biological assay was performed to study the potency of ORM-analogs by observing their pharmaceutical effects on living tissue (in vitro) and the effects of these analogs of unknown potency were compared to the effects of the standard (ormeloxifene). An MTT cell viable assay was first conducted to measure the cytotoxicity and anti-proliferation activity of synthesized analogs (Table 2 and FIG. 2).

COc1ccc2c(c1)OC(C)(C)C(c1ccccc1)C2c1ccc(OCCN2CCCC2)cc1 (stereo not shown) [Ormeloxifene, reference compound]
IC50: 17.5 µM
